Source: patent publication US20240174622A1, “COMPOUND AND RADIOACTIVE LABELING COMPOUND” (NIHON MEDI-PHYSICS CO., LTD., priority 2021, published 2024)

What was measured:
[1] = target: human serum albumin (HSA) (Homo sapiens, UniProt P02768); test: Evaluation of binding to albumin (HSA solution, PBS control); details: left to stand in HSA solution (45 mg/mL)
Method: Thereafter, the reaction liquids were added to a spin column (Sephadex G-100; manufactured by Cytiva), and centrifuged at 1500×g at 4° C. for 2 minutes. After separation, the radioactivity for each of the column and the eluate was measured with a gamma counter.
When a compound to be evaluated binds to albumin to form a composite, the compound passes through the column because of the increased molecular size.
As in Examples described above, PBS and human albumin were used to evaluate binding to albumin.
Thereafter, the reaction liquid was added to a spin column (Sephadex G-50; manufactured by Cytiva), and centrifuged at 1500×g at 4° C. for 2 minutes. After separation, the radioactivity of the column and the eluate was measured with a gamma counter.

[2] = test system: LNCaP tumor-transplanted mouse; test: Internal radioactivity distribution using LNCaP tumor-transplanted mouse; format: in vivo
Method: (§1) The animal test was performed in compliance with the guidelines of Kyoto University Animal Experiment Committee. Male CB17/IcrJcl-Prkdc^scid mice were purchased from CLEA Japan, Inc. The animals were kept under 12 h/12 h, day/night cycle conditions and fed ad libitum with food and water. LNCaP cells (1.0×10^7 cells/mouse) or PC-3 cells (1.0×10^7 cells/mouse) were suspended in a mixture of PBS and Matrigel manufactured by Corning Life Sciences (1:1, 150 μL) and the suspension was subcutaneously transplanted to the right shoulder of mice under isoflurane anesthesia. Thereafter, the mice were kept for 40 to 60 days.
LNCaP or PC-3 tumor-implanted mice were administered saline solutions (185 kBq, 100 μL) of [^111In]In-PSMA-DA1 or [^111In]In-PSMA-DB from the tail vein (n=3 each). Mice were euthanized 1, 4, 24, 48, 96, and 192 hours after administration. Thereafter, blood and each organ were recovered, and the mass and radioactivity of the organs were measured.
The percentage (% ID) of the radioactivity amount to the administered radioactivity amount (injected dose) is shown as the value (% ID/g) divided by the blood mass or the organ mass (g).
LNCaP tumor-implanted mice prepared by the same method as in Example 1-1 were administered a saline solution (241 kBq/100 μL) of [^111In]In-PtDA from the tail vein (n=3). Mice were euthanized 1, 24, and 48 hours after administration. Thereafter, blood and each organ were recovered, and the mass and radioactivity of the organs were measured.
LNCaP tumor-implanted mice prepared by the same method as in Example 1-1 were administered a saline solution (259 kBq/100 μL each) of each of the radiolabeled compounds in Examples 3-1 to 3-3 or Comparative Examples 2-1 to 2-2 from the tail vein (n=2 to 3). Mice were euthanized 1, 4, 24, 48, 96, and 192 hours after administration. Thereafter, blood and each organ were recovered, and the mass and radioactivity of the organs were measured.
as §1, with “LNCaP cells (4.3×10^6 cells/mouse) or” for “LNCaP cells (1.0×10^7 cells/mouse) or”, “PC-3 cells (3.3×10^6 cells/mouse) were” for “PC-3 cells (1.0×10^7 cells/mouse) were”, “shoulder of CB17/IcrJcl-Prkdc^scid mice under” for “shoulder of mice under”
Mice were euthanized 1, 4, 24, 48, 96, and 192 hours after administration. Thereafter, blood and each organ were recovered, and the mass and radioactivity of the organs were measured.
The results are shown in Table 12 (Mean value±standard deviation, n=3).

Sequence of human serum albumin (HSA) (P02768 25-609): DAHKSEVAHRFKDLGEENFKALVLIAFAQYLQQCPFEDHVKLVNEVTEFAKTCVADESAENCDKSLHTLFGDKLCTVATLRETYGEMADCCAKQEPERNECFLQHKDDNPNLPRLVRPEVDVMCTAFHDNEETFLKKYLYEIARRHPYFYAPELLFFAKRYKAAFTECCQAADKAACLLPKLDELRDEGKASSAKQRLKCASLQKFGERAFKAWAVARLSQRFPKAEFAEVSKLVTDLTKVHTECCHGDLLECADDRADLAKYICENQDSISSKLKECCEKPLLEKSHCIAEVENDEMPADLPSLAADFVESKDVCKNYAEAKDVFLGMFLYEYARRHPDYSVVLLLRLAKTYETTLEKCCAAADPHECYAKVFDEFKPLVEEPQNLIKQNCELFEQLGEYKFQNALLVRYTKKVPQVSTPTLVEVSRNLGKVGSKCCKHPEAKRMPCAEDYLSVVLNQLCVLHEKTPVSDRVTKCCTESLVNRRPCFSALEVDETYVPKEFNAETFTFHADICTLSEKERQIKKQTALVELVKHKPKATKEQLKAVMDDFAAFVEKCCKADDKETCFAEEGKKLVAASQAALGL

O=C([O-])CN(CCN(CCc1ccc(NC(=O)[C@H](CCCCNC(=O)CCC(=O)NCCCC[C@H](NC(=O)N[C@@H](CCC(=O)O)C(=O)O)C(=O)O)NC(=O)CCCc2ccc(I)cc2)cc1)CCN(CC(=O)[O-])Cc1cccc(C(=O)[O-])n1)Cc1cccc(C(=O)[O-])n1.[111In+3] [[^111In]In-Neunpa-2]
radioactivity in the eluate (in words) [1]: significantly higher
Blood ([2]; 1 h after administration): 13.6 ± 0.68 % ID/g
Brain ([2]; 1 h after administration): 0.18 ± 0.00 % ID/g
Heart ([2]; 1 h after administration): 3.74 ± 0.04 % ID/g
Intestine ([2]; 1 h after administration): 1.22 ± 0.30 % ID/g
Kidney ([2]; 1 h after administration): 90.1 ± 5.81 % ID/g
LNCaP Tumor ([2]; 1 h after administration): 7.44 ± 0.18 % ID/g
Liver ([2]; 1 h after administration): 2.23 ± 0.34 % ID/g
Lung ([2]; 1 h after administration): 8.99 ± 1.68 % ID/g
Muscle ([2]; 1 h after administration): 1.09 ± 0.25 % ID/g
Pancreas ([2]; 1 h after administration): 1.61 ± 0.42 % ID/g
Spleen ([2]; 1 h after administration): 16.9 ± 2.52 % ID/g
Stomach (% ID) ([2]; 1 h after administration): 0.23 ± 0.06 % ID
Blood ([2]; 4 h after administration): 5.73 ± 0.26 % ID/g
Brain ([2]; 4 h after administration): 0.12 ± 0.01 % ID/g
Heart ([2]; 4 h after administration): 1.78 ± 0.15 % ID/g
Intestine ([2]; 4 h after administration): 1.05 ± 0.29 % ID/g
Kidney ([2]; 4 h after administration): 126 ± 17.6 % ID/g
LNCaP Tumor ([2]; 4 h after administration): 8.57 ± 0.61 % ID/g
Liver ([2]; 4 h after administration): 1.29 ± 0.02 % ID/g
Lung ([2]; 4 h after administration): 4.14 ± 0.61 % ID/g
Muscle ([2]; 4 h after administration): 0.61 ± 0.11 % ID/g
Pancreas ([2]; 4 h after administration): 0.82 ± 0.05 % ID/g
Spleen ([2]; 4 h after administration): 8.16 ± 3.89 % ID/g
Stomach (% ID) ([2]; 4 h after administration): 0.29 ± 0.18 % ID
Blood ([2]; 24 h after administration): 2.48 ± 0.07 % ID/g
Brain ([2]; 24 h after administration): 0.08 ± 0.01 % ID/g
Heart ([2]; 24 h after administration): 0.79 ± 0.08 % ID/g
Intestine ([2]; 24 h after administration): 0.68 ± 0.11 % ID/g
Kidney ([2]; 24 h after administration): 101 ± 18.7 % ID/g
LNCaP Tumor ([2]; 24 h after administration): 8.61 ± 1.06 % ID/g
Liver ([2]; 24 h after administration): 1.00 ± 0.15 % ID/g
Lung ([2]; 24 h after administration): 2.26 ± 0.29 % ID/g
Muscle ([2]; 24 h after administration): 0.27 ± 0.11 % ID/g
Pancreas ([2]; 24 h after administration): 0.65 ± 0.05 % ID/g
Spleen ([2]; 24 h after administration): 2.67 ± 0.59 % ID/g
Stomach (% ID) ([2]; 24 h after administration): 0.13 ± 0.06 % ID
Blood ([2]; 48 h after administration): 0.20 ± 0.02 % ID/g
Brain ([2]; 48 h after administration): 0.03 ± 0.00 % ID/g
Heart ([2]; 48 h after administration): 0.14 ± 0.03 % ID/g
Intestine ([2]; 48 h after administration): 0.23 ± 0.05 % ID/g
Kidney ([2]; 48 h after administration): 11.7 ± 3.83 % ID/g
LNCaP Tumor ([2]; 48 h after administration): 4.92 ± 0.70 % ID/g
Liver ([2]; 48 h after administration): 0.58 ± 0.23 % ID/g
Lung ([2]; 48 h after administration): 0.40 ± 0.10 % ID/g
Muscle ([2]; 48 h after administration): 0.05 ± 0.04 % ID/g
Pancreas ([2]; 48 h after administration): 0.25 ± 0.09 % ID/g
Spleen ([2]; 48 h after administration): 0.83 ± 0.20 % ID/g
Stomach (% ID) ([2]; 48 h after administration): 0.06 ± 0.03 % ID
Blood ([2]; 96 h after administration): 0.13 ± 0.12 % ID/g
Brain ([2]; 96 h after administration): 0.03 ± 0.02 % ID/g
Heart ([2]; 96 h after administration): 0.14 ± 0.11 % ID/g
Intestine ([2]; 96 h after administration): 0.17 ± 0.10 % ID/g
Kidney ([2]; 96 h after administration): 9.71 ± 10.8 % ID/g
LNCaP Tumor ([2]; 96 h after administration): 3.35 ± 0.90 % ID/g
Liver ([2]; 96 h after administration): 1.30 ± 1.30 % ID/g
Lung ([2]; 96 h after administration): 0.36 ± 0.24 % ID/g
Muscle ([2]; 96 h after administration): 0.03 ± 0.02 % ID/g
Pancreas ([2]; 96 h after administration): 0.18 ± 0.12 % ID/g
Spleen ([2]; 96 h after administration): 0.47 ± 0.23 % ID/g
Stomach (% ID) ([2]; 96 h after administration): 0.03 ± 0.01 % ID
Blood ([2]; 192 h after administration): 0.02 ± 0.02 % ID/g
Brain ([2]; 192 h after administration): 0.02 ± 0.00 % ID/g
Heart ([2]; 192 h after administration): 0.22 ± 0.10 % ID/g
Intestine ([2]; 192 h after administration): 0.10 ± 0.05 % ID/g
Kidney ([2]; 192 h after administration): 1.83 ± 0.67 % ID/g
LNCaP Tumor ([2]; 192 h after administration): 5.16 ± 0.23 % ID/g
Liver ([2]; 192 h after administration): 0.64 ± 0.24 % ID/g
Lung ([2]; 192 h after administration): 0.29 ± 0.07 % ID/g
Muscle ([2]; 192 h after administration): 0.08 ± 0.00 % ID/g
Pancreas ([2]; 192 h after administration): 0.29 ± 0.11 % ID/g
Spleen ([2]; 192 h after administration): 0.88 ± 0.34 % ID/g
Stomach (% ID) ([2]; 192 h after administration): 0.02 ± 0.01 % ID
